This passage reports GI50 and TGI results from PubChem BioAssay (NCI).

Among the test systems are BT-549 breast; HOP-92 NSCLC; M14 melanoma; HCT-116 colon; LOX IMVI melanoma; CAKI-1 renal; T-47D breast; TK-10 renal; SR leukemia; CCRF-CEM leukemia.
What all share (assay): growth of human tumour cells (NCI), 48 h

Each structure is given as a SMILES string. Where “and” joins values, the source holds several entries; their conditions need not be identical. Identical values can stand only once.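 Five concentrations, 48 hours, 96-well plates. GI50: concentration for 50% inhibition of growth. The concentration for full growth arrest is given as TGI.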

For `COc1ccc2c(c1)C(=O)c1c-2n(CCCN2CCOCC2)c(=O)c2cc([N+](=O)[O-])ccc12`, the GI50 with BT-549 breast, in the test on HOP-92 NSCLC, in the test on M14 melanoma, in the test on HCT-116 colon, in the test with LOX IMVI melanoma and with CAKI-1 renal was below 0.01 µM throughout. Further, the GI50 in the test with T-47D breast was below 0.01 µM; in the test with TK-10 renal, 0.0623 µM; in the test with SR leukemia, below 0.01 µM; in the test with CCRF-CEM leukemia, below 0.01 µM. Further, the TGI in the test with BT-549 breast was 0.448 µM; in the test with HOP-92 NSCLC, below 0.01 µM; in the test with M14 melanoma, below 0.01 µM; in the test with HCT-116 colon, 0.0454 µM; in the test with LOX IMVI melanoma it was 0.0127 µM; in the test on CAKI-1 renal, 0.53 µM. For the same molecule, the TGI is above 100 µM with T-47D breast and 17.7 µM with TK-10 renal.
`COc1cc(/C=C2\C(=O)Nc3ccccc32)cc(OC)c1OC`: the GI50 is 28.7 µM with BT-549 breast; 20.8 µM in the test with HOP-92 NSCLC; 21.2 µM with M14 melanoma; 17.3 µM with HCT-116 colon; 16.5 µM in the test with LOX IMVI melanoma; 18.9 µM in the test on CAKI-1 renal. Besides, the GI50 was above 100 µM in the test on T-47D breast, 29.4 µM in the test on TK-10 renal, 3.83 µM in the test with SR leukemia and 8.82 µM with CCRF-CEM leukemia. Besides, the TGI in the test with BT-549 breast is above 100 µM; in the test on HOP-92 NSCLC, 71.7 µM; with M14 melanoma, 79.5 µM; in the test with HCT-116 colon it was above 100 µM; in the test on LOX IMVI melanoma, above 100 µM; in the test on CAKI-1 renal, above 100 µM. In addition, the TGI with T-47D breast, in the test with TK-10 renal, in the test on SR leukemia and in the test on CCRF-CEM leukemia was above 100 µM each time.
For the molecule `Oc1cc(Cl)ccc1Cc1ccc(Cl)cc1O`, the GI50 in the test on BT-549 breast is 4.22 µM; in the test with HOP-92 NSCLC, 2.67 µM; with M14 melanoma it was 13.5 µM; in the test with HCT-116 colon it was 4.95 µM; in the test with LOX IMVI melanoma, 5.84 µM; in the test on CAKI-1 renal, 18.2 µM. The GI50 in the test with T-47D breast was 4.91 µM; in the test with TK-10 renal it was 17 µM; in the test on SR leukemia, 10.5 µM; in the test on CCRF-CEM leukemia it was 15.8 µM. The TGI in the test on BT-549 breast is 19.1 µM; in the test on HOP-92 NSCLC, 8.11 µM; in the test on M14 melanoma, 26.3 µM; with HCT-116 colon, 17.1 µM; in the test with LOX IMVI melanoma, 18.2 µM; in the test with CAKI-1 renal it was 43 µM. The TGI in the test on T-47D breast was 29.3 µM; with TK-10 renal, 34.8 µM; with SR leukemia, above 100 µM; in the test with CCRF-CEM leukemia it was above 100 µM.
`O=[N+]([O-])/C=C/c1ccc([N+](=O)[O-])cc1`: the GI50 with BT-549 breast is 2.1 µM; in the test with HOP-92 NSCLC it was 13 µM; with M14 melanoma, 1.55 µM; with HCT-116 colon, 1.52 µM; in the test on LOX IMVI melanoma, 1.32 µM; with CAKI-1 renal it was 4.16 µM. Also, the GI50 with T-47D breast was 2.78 µM; in the test with TK-10 renal it was 2.7 µM; with SR leukemia, 2.29 µM; with CCRF-CEM leukemia, 3.63 µM. The TGI in the test with BT-549 breast was found to be 4.02 µM; in the test with HOP-92 NSCLC, 28.9 µM; in the test with M14 melanoma, 3.22 µM; with HCT-116 colon, 3.08 µM; with LOX IMVI melanoma, 2.73 µM; in the test with CAKI-1 renal it was 21.1 µM. Moreover, the TGI worked out at 9.03 µM in the test on T-47D breast, 6.19 µM with TK-10 renal, 8.33 µM in the test with SR leukemia and 84.4 µM in the test with CCRF-CEM leukemia.
Take `COc1ccc(-c2ccccc2)cc1-c1c(Nc2cc(Cl)cc(Cl)c2O)c(=O)c1=O`: the GI50 in the test with BT-549 breast was 1.41 µM; in the test with HOP-92 NSCLC, 0.929 µM; in the test on M14 melanoma it was 1.72 µM; with HCT-116 colon it was 1.58 µM; with LOX IMVI melanoma, 1.72 µM; in the test with CAKI-1 renal, 1.33 µM. Also, the GI50 in the test with T-47D breast is 1.7 µM; in the test with TK-10 renal it was 2.84 µM; in the test with SR leukemia, 1.61 µM; in the test with CCRF-CEM leukemia it was 1.64 µM. For the same molecule, the TGI in the test with BT-549 breast is 4.59 µM; with HOP-92 NSCLC it was 2.81 µM; in the test with M14 melanoma, above 50 µM; with HCT-116 colon, above 50 µM; with LOX IMVI melanoma it was above 50 µM; in the test on CAKI-1 renal, 4.83 µM. Also, the TGI is above 50 µM in the test with T-47D breast, above 50 µM with TK-10 renal, 21.8 µM in the test on SR leukemia and above 50 µM with CCRF-CEM leukemia.
On to `COc1ccc(-c2nc3sc4c(c3c(=O)[nH]2)CCCC4)c2ccccc12`, for which the TGI in the test with BT-549 breast is 6.08 µM and 3.47 µM; in the test on HOP-92 NSCLC, 2.37 µM and 7.9 µM; with M14 melanoma, 0.63 µM and 0.135 µM; in the test on LOX IMVI melanoma, above 100 µM; in the test with T-47D breast, above 100 µM; in the test on CCRF-CEM leukemia it was above 100 µM. The GI50 in the test on HOP-92 NSCLC is 0.0957 µM and 0.599 µM; in the test with HCT-116 colon, 0.371 µM; with CAKI-1 renal, 0.45 µM; with T-47D breast, 4.82 µM and 2.85 µM; in the test with TK-10 renal it was 3.53 µM; in the test on SR leukemia it was 0.418 µM.
Consider `Cc1ccc(/C(=C/C=C(C#N)C#N)Sc2ccccn2)cc1`, for which the GI50 in the test with BT-549 breast is 2.59 µM; in the test with HOP-92 NSCLC, 12.6 µM; in the test with M14 melanoma, 2.69 µM; in the test with HCT-116 colon, 2.35 µM; with LOX IMVI melanoma it was 1.83 µM; with CAKI-1 renal, 5.62 µM. Besides, the GI50 with T-47D breast was 4 µM; in the test on TK-10 renal it was 3.02 µM; in the test with SR leukemia it was 3.06 µM; in the test on CCRF-CEM leukemia it was 0.168 µM. The TGI amounted to 6.85 µM in the test with BT-549 breast; 31.7 µM in the test with HOP-92 NSCLC; 6.29 µM in the test with M14 melanoma; 5.71 µM in the test with HCT-116 colon; 4.05 µM with LOX IMVI melanoma; 11.8 µM in the test on CAKI-1 renal. For the same molecule, the TGI with T-47D breast was above 24.7 µM; in the test on TK-10 renal, 12.1 µM; in the test on SR leukemia it was 10.4 µM; in the test on CCRF-CEM leukemia, 0.575 µM.
